# Results reported in patent publication US9833497B2, “Human originated EGF domain proteins and use of the same” (CHENGDU SOURCEBIO LIMITED-LIABILITY COMPANY, priority 2013, dated 2017).
# Legend:
# Type in all cases: cell-based
# Pseudomonas aeruginosa = experiment: MIC against Gram-negative bacteria: Pseudomonas aeruginosa
# Procedure, shortened: (§1)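 Purified recombinant human EGF domain proteins are tested by broth dilution in LB against a 5×10^5 CFU/mL inoculum, with two-fold serial dilutions run in triplicate. Plates are incubated at 37° C with shaking, and the MIC is read as the lowest protein concentration without growth.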
# E. coli DH5α = experiment: Antibacterial activity: MIC and growth curve against E. coli DH5α in 96-well plate; settings: minimal inhibitory concentration against E. coli DH5α; 96-well plate, 5×10^5 CFU/mL, 37° C., judged after 8 h
# Procedure, shortened: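 Log-phase DH5α (OD600 about 0.5, 37° C, 185 rpm in LB) was pelleted, resuspended in fresh LB and seeded at 5×10^5 CFU/mL with recombinant protein at 50, 25 and 12.5 μg/mL (two-fold series), in triplicate. Plates were shaken at 175 rpm, 37° C, and OD600 was read every 30 min. MIC was the lowest concentration with no growth.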
# E. coli BL21 = experiment: MIC against Gram-negative bacteria: E. coli BL21
# Procedure, shortened: as §1
# Proteus vulgaris = experiment: MIC against Gram-negative bacteria: Proteus vulgaris
# Procedure, shortened: as §1
# Proteus mirabilis = experiment: MIC against Gram-negative bacteria: Proteus mirabilis
# Procedure, shortened: as §1
# Moraxella catarrhalis = experiment: MIC against Gram-negative bacteria: Moraxella catarrhalis
# Procedure, shortened: as §1
# Citrobacter diversus = experiment: MIC against Gram-negative bacteria: Citrobacter diversus
# Procedure, shortened: as §1
# Enterobacter cloacae = experiment: MIC against Gram-negative bacteria: Enterobacter cloacae
# Procedure, shortened: as §1
# Klebsiella pneumonia = experiment: MIC against Gram-negative bacteria: Klebsiella pneumonia
# Procedure, shortened: as §1
# Aeromonas hydrophila = experiment: MIC against Gram-negative bacteria: Aeromonas hydrophila
# Procedure, shortened: as §1
# Serratia marcescens = experiment: MIC against Gram-negative bacteria: Serratia marcescens
# Procedure, shortened: as §1
# [1] = 10 h cultivation at 37° C., 5×10^5 CFU/mL, two-fold serial dilution
# [2] = 96-well plate, 5×10^5 CFU/mL, 37° C., 10 h
# [3] = P. aeruginosa, 10 h cultivation at 37° C., 5×10^5 CFU/mL
# [4] = E. coli BL21, 10 h cultivation at 37° C., 5×10^5 CFU/mL
# [5] = P. vulgaris, 10 h cultivation at 37° C., 5×10^5 CFU/mL
# [6] = P. mirabilis, 10 h cultivation at 37° C., 5×10^5 CFU/mL
# [7] = M. catarrhalis, 10 h cultivation at 37° C., 5×10^5 CFU/mL
# [8] = C. diversus, 10 h cultivation at 37° C., 5×10^5 CFU/mL
# [9] = E. cloacae, 10 h cultivation at 37° C., 5×10^5 CFU/mL
# [10] = K. pneumonia, 10 h cultivation at 37° C., 5×10^5 CFU/mL
# [11] = A. hydrophila, 10 h cultivation at 37° C., 5×10^5 CFU/mL
# [12] = S. marcescens, 10 h cultivation at 37° C., 5×10^5 CFU/mL
substance,measurement,setting,value
PRT1165 (NRAICRQGCSPKHGSCKLPGDCRCQYGWQGLYCD; listed as Homo sapiens),MIC P. aeruginosa,Pseudomonas aeruginosa; [1],12.5 µg/mL
same,MIC,E. coli DH5α,50 µg/mL
same,MIC E. coli BL21,E. coli BL21; [1],25 µg/mL
same,MIC P. vulgaris,Proteus vulgaris; [1],25 µg/mL
same,MIC P. mirabilis,Proteus mirabilis; [1],50 µg/mL
same,MIC M. catarrhalis,Moraxella catarrhalis; [1],25 µg/mL
same,MIC C. diversus,Citrobacter diversus; [1],12.5 µg/mL
same,MIC E. cloacae,Enterobacter cloacae; [1],50 µg/mL
same,MIC K. pneumonia,Klebsiella pneumonia; [1],25 µg/mL
same,MIC A. hydrophila,Aeromonas hydrophila; [1],25 µg/mL
same,MIC S. marcescens,Serratia marcescens; [1],12.5 µg/mL
PRT1294 (DFDDCQDNKCKNGAHCTDAVNGYTCICPEGYSGLFCE; listed as Homo sapiens),MIC against P. aeruginosa,"Pseudomonas aeruginosa; Pseudomonas aeruginosa, 96-well plate, 5×10^5 CFU/mL, 37° C., 10 h",50 µg/mL
same,MIC,E. coli DH5α,50 µg/mL
same,MIC against E. coli BL21,"E. coli BL21; E. coli BL21, 96-well plate, 5×10^5 CFU/mL, 37° C., 10 h",12.5 µg/mL
same,MIC against P. vulgaris,"Proteus vulgaris; Proteus vulgaris, 96-well plate, 5×10^5 CFU/mL, 37° C., 10 h",12.5 µg/mL
same,MIC against P. mirabilis,"Proteus mirabilis; Proteus mirabilis, 96-well plate, 5×10^5 CFU/mL, 37° C., 10 h",50 µg/mL
same,MIC against M. catarrhalis,"Moraxella catarrhalis; Moraxella catarrhalis, 96-well plate, 5×10^5 CFU/mL, 37° C., 10 h",12.5 µg/mL
same,MIC against C. diversus,"Citrobacter diversus; Citrobacter diversus, 96-well plate, 5×10^5 CFU/mL, 37° C., 10 h",50 µg/mL
same,MIC against E. cloacae,"Enterobacter cloacae; Enterobacter cloacae, 96-well plate, 5×10^5 CFU/mL, 37° C., 10 h",50 µg/mL
same,MIC against K. pneumonia,"Klebsiella pneumonia; Klebsiella pneumonia, 96-well plate, 5×10^5 CFU/mL, 37° C., 10 h",12.5 µg/mL
same,MIC against A. hydrophila,"Aeromonas hydrophila; Aeromonas hydrophila, 96-well plate, 5×10^5 CFU/mL, 37° C., 10 h",12.5 µg/mL
same,MIC against S. marcescens,"Serratia marcescens; Serratia marcescens, 96-well plate, 5×10^5 CFU/mL, 37° C., 10 h",50 µg/mL
PRT604 (CPCNRFAELCDPETGSCFNCGGFTTGRNCERCIDGYYGNPSSGQPCRP; listed as Homo sapiens),MIC P. aeruginosa,Pseudomonas aeruginosa; [2],25 µg/mL
same,MIC,E. coli DH5α,50 µg/mL
same,MIC E. coli BL21,E. coli BL21; [2],12.5 µg/mL
same,MIC P. vulgaris,Proteus vulgaris; [2],12.5 µg/mL
same,MIC P. mirabilis,Proteus mirabilis; [2],25 µg/mL
same,MIC M. catarrhalis,Moraxella catarrhalis; [2],12.5 µg/mL
same,MIC C. diversus,Citrobacter diversus; [2],25 µg/mL
same,MIC E. cloacae,Enterobacter cloacae; [2],25 µg/mL
same,MIC K. pneumonia,Klebsiella pneumonia; [2],50 µg/mL
same,MIC A. hydrophila,Aeromonas hydrophila; [2],12.5 µg/mL
same,MIC S. marcescens,Serratia marcescens; [2],25 µg/mL
PRT829 (FGPSCTLHCDCGGGADCDPVSGQCHCVDGYMGPTCR; listed as Homo sapiens),MIC (μg/mL) P. aeruginosa,Pseudomonas aeruginosa; [3],12.5 µg/mL
same,MIC,E. coli DH5α,50 µg/mL
same,MIC (μg/mL) E. coli BL21,E. coli BL21; [4],25 µg/mL
same,MIC (μg/mL) P. vulgaris,Proteus vulgaris; [5],12.5 µg/mL
same,MIC (μg/mL) P. mirabilis,Proteus mirabilis; [6],50 µg/mL
same,MIC (μg/mL) M. catarrhalis,Moraxella catarrhalis; [7],25 µg/mL
same,MIC (μg/mL) C. diversus,Citrobacter diversus; [8],12.5 µg/mL
same,MIC (μg/mL) E. cloacae,Enterobacter cloacae; [9],50 µg/mL
same,MIC (μg/mL) K. pneumonia,Klebsiella pneumonia; [10],25 µg/mL
same,MIC (μg/mL) A. hydrophila,Aeromonas hydrophila; [11],25 µg/mL
same,MIC (μg/mL) S. marcescens,Serratia marcescens; [12],12.5 µg/mL
PRT414 (DIDECESGIHNCLPDFICQNTLGSFRCRPKLQCKSGFIQDALGNCI; listed as Homo sapiens),MIC,Pseudomonas aeruginosa; [3],12.5 µg/mL
same,MIC,E. coli DH5α,12.5 µg/mL
same,MIC,E. coli BL21; [4],12.5 µg/mL
same,MIC,Proteus vulgaris; [5],25 µg/mL
same,MIC,Proteus mirabilis; [6],12.5 µg/mL
same,MIC,Moraxella catarrhalis; [7],25 µg/mL
same,MIC,Citrobacter diversus; [8],12.5 µg/mL
same,MIC,Enterobacter cloacae; [9],12.5 µg/mL
same,MIC,Klebsiella pneumonia; [10],12.5 µg/mL
same,MIC,Aeromonas hydrophila; [11],25 µg/mL
same,MIC,Serratia marcescens; [12],50 µg/mL
PRT433 (DIDECRYGYCQQLCANVPGSYSCTCNPGFTLNEDGRSCQ; listed as Homo sapiens),MIC,Pseudomonas aeruginosa; [3],12.5 µg/mL
same,MIC,E. coli DH5α,12.5 µg/mL
same,MIC,E. coli BL21; [4],25 µg/mL
same,MIC,Proteus vulgaris; [5],12.5 µg/mL
same,MIC,Proteus mirabilis; [6],50 µg/mL
same,MIC,Moraxella catarrhalis; [7],12.5 µg/mL
same,MIC,Citrobacter diversus; [8],50 µg/mL
same,MIC,Enterobacter cloacae; [9],50 µg/mL
same,MIC,Klebsiella pneumonia; [10],12.5 µg/mL
same,MIC,Aeromonas hydrophila; [11],12.5 µg/mL
same,MIC,Serratia marcescens; [12],50 µg/mL
PRT983 (VARSCRELQCPVGVPCQQTPRGPRCACPPGLSGPSCR; listed as Homo sapiens),MIC,"Pseudomonas aeruginosa; P. aeruginosa, 10 h cultivation at 37° C.",25 µg/mL
same,MIC,E. coli DH5α,25 µg/mL
same,MIC,"E. coli BL21; E. coli BL21, 10 h cultivation at 37° C.",12.5 µg/mL
same,MIC,"Proteus vulgaris; P. vulgaris, 10 h cultivation at 37° C.",12.5 µg/mL
same,MIC,"Proteus mirabilis; P. mirabilis, 10 h cultivation at 37° C.",50 µg/mL
same,MIC,"Moraxella catarrhalis; M. catarrhalis, 10 h cultivation at 37° C.",12.5 µg/mL
same,MIC,"Citrobacter diversus; C. diversus, 10 h cultivation at 37° C.",50 µg/mL
same,MIC,"Enterobacter cloacae; E. cloacae, 10 h cultivation at 37° C.",12.5 µg/mL
same,MIC,"Klebsiella pneumonia; K. pneumonia, 10 h cultivation at 37° C.",50 µg/mL
same,MIC,"Aeromonas hydrophila; A. hydrophila, 10 h cultivation at 37° C.",25 µg/mL
same,MIC,"Serratia marcescens; S. marcescens, 10 h cultivation at 37° C.",25 µg/mL
